Patent publication US20140274969A1 (priority 2013, published 2014)
Like-named read-outs stand apart in the source and are kept apart here.

Legend:
[1] = Experimental: Subjects were evaluated for adverse events daily while in hospital and at each subsequent clinical evaluation. All serious adverse events (Table 4) were reviewed promptly by a safety monitoring board composed of clinicians and clinician researchers not otherwise involved in this study. A summary of all adverse events was reviewed every 6 months.
The model assumed that any change associated with treatment group was constant over these time points. An interaction term between treatment and injury type was included to allow for the possibility that changes associated with treatment group differed among motor-complete and motor-incomplete injured subjects. ASIA sensory scores were similarly evaluated. ASIA motor, pin-prick and light scores were evaluated by the Shapiro-Wilk normality test and were consistent with a normal distribution. Functional recovery data were compared over all data points. Adverse events were categorized by system and mean numbers of events per patient were compared within each system by ANOVA. All statistical tests were two-tailed (a=0.05). […] The Student t-test was then used to estimate the between group difference that this study was powered to detect with power=0.8 and a=0.05.

[2] = system: acute traumatic SCI; assay: Functional recovery scales (SCIM, FIM, London Handicap, SF36) after SCI; assay type: in vivo, human; conditions: 6 to 52 weeks after injury
Experimental: Clin. Exp. Pharmacol. Physiol. 1:299-308). […] Functional outcome was assessed using the Spinal Cord Independence Measure, Functional Independence Measure, London Handicap scale, and Short Form 36 questionnaires administered at 6 weeks, 12 weeks, 26 weeks, and 52 weeks after injury. […] ASIA sensory scores were similarly evaluated. […] Functional recovery data were compared over all data points. […] All statistical tests were two-tailed (a=0.05).

[3] = system: SCI; conditions: rats; 90 mg/kg immediately after SCI then 45 mg/kg every 12 h; cited from earlier work
[4] = High dose (800 mg tapered by 100 mg each 12 h to 400 mg, 7 days)
[5] = Low dose (200 mg IV twice daily, 7 days)

## CN(C)c1ccc(O)c2c1C[C@H]1C[C@H]3[C@H](N(C)C)C(O)=C(C(N)=O)C(=O)[C@@]3(O)C(O)=C1C2=O [minocycline, (2E,4S,4aR,5aS,12aR)-2-(amino-hydroxy-methylidene)-4,7-bis(dimethylamino)-10,11,12a-trihydroxy-4-a,5,5a,6-tetrahydro-4H-tetracene-1,3,12-trione]
[1]; [4]
  Autonomic dysreflexia: # of events: 1
  Autonomic dysreflexia: # of subjects: 1
  Cardiac: # of events: 14
  Cardiac: # of subjects: 9
  Deep venous thrombosis: # of events: 1
  Deep venous thrombosis: # of subjects: 1
  Deep venous thrombosis: events/subject: 0.06
  Endocrine: # of events: 0
  Endocrine: # of subjects: 0
  Endocrine: events/subject: 0
  Gastrointestinal: # of events: 36
  Gastrointestinal: # of subjects: 12
  Gastrointestinal: events/subject: 1.88
  Genito-urinary: # of events: 7
  Genito-urinary: # of subjects: 5
  Genito-urinary: events/subject: 0.44
  Haematological: # of events: 9
  Haematological: # of subjects: 6
  Haematological: events/subject: 0.63
  Infectious: # of events: 28
  Infectious: # of subjects: 11
  Infectious: events/subject: 1.38
  Integumentary: # of events: 21
  Integumentary: # of subjects: 11
  Integumentary: events/subject: 1.13
  Musculoskeletal: # of events: 14
  Musculoskeletal: # of subjects: 13
  Musculoskeletal: events/subject: 0.75
  Neurological: # of events: 16
  Neurological: # of subjects: 10
  Neurological: events/subject: 0.56
  Other: # of events: 19
  Other: # of subjects: 11
  Pain: # of events: 31
  Pain: # of subjects: 14
  Psychiatric: # of events: 18
  Psychiatric: # of subjects: 8
  Psychiatric: events/subject: 1.13
  Respiratory: # of events: 13
  Respiratory: # of subjects: 9
  Respiratory: events/subject: 0.81
  Serious adverse events: # of events: 1
  Serious adverse events: # of subjects: 1
  Serious adverse events: events/subject: 0.06
[1]; [5]
  Autonomic dysreflexia: # of events: 0
  Autonomic dysreflexia: # of subjects: 0
  Cardiac: # of events: 5
  Cardiac: # of subjects: 4
  Deep venous thrombosis: # of events: 0
  Deep venous thrombosis: # of subjects: 0
  Deep venous thrombosis: events/subject: 0
  Endocrine: # of events: 1
  Endocrine: # of subjects: 1
  Endocrine: events/subject: 0.2
  Gastrointestinal: # of events: 12
  Gastrointestinal: # of subjects: 5
  Gastrointestinal: events/subject: 2.2
  Genito-urinary: # of events: 0
  Genito-urinary: # of subjects: 0
  Genito-urinary: events/subject: 0
  Haematological: # of events: 2
  Haematological: # of subjects: 2
  Haematological: events/subject: 0.4
  Infectious: # of events: 12
  Infectious: # of subjects: 4
  Infectious: events/subject: 1.8
  Integumentary: # of events: 5
  Integumentary: # of subjects: 4
  Integumentary: events/subject: 1.0
  Musculoskeletal: # of events: 4
  Musculoskeletal: # of subjects: 4
  Musculoskeletal: events/subject: 0.6
  Neurological: # of events: 11
  Neurological: # of subjects: 5
  Neurological: events/subject: 1.6
  Other: # of events: 13
  Other: # of subjects: 5
  Pain: # of events: 10
  Pain: # of subjects: 5
  Psychiatric: # of events: 8
  Psychiatric: # of subjects: 4
  Psychiatric: events/subject: 1.2
  Respiratory: # of events: 5
  Respiratory: # of subjects: 4
  Respiratory: events/subject: 1.0
  Serious adverse events: # of events: 1
  Serious adverse events: # of subjects: 1
  Serious adverse events: events/subject: 0.2
[1]; low-dose (200 mg) or high-dose (400 mg) vs placebo
  adverse events among placebo, low-dose and high-dose groups: did not vary significantly
[2]
  functional outcomes (SCIM, FIM, London Handicap Scale, Short Form 36) vs placebo: greater in the minocycline-treated group but the differences were not statistically significant
[3]
  functional motor control in the hind limbs: improved
  size of lesions on spinal cords: reduced
